From ChEMBL document CHEMBL4732205, “Structure-based optimization identified novel furyl-containing 2,4-diarylaminopyrimidine analogues as ALK/ROS1 dual inhibitors with anti-mutation effects” (Eur J Med Chem, 2021) come the findings set out here.

The test system of assay [1] is NCI-H2228. As to the kind of experiment: Induction of apoptosis in human NCI-H2228 cells assessed as morphological changes at 30 nM incubated for 48 hrs by AO-EB staining based fluorescence microscopic analysis. The class given is functional, cell-based.
For assay [2], the target named is T1, ALK tyrosine kinase receptor (Homo sapiens, UniProt Q9UM73). The assay is described as follows: Inhibition of recombinant human N-terminal GST-tagged ALK (1058 to 1620 residues) expressed in baculovirus expression system using Srctide as substrate incubated for 1 hr by mobility shift assay.
Assay [3] relates to NCI-H2228. As to the kind of experiment: Induction of apoptosis in human NCI-H2228 cells assessed as morphological changes incubated for 48 hrs by Hoechst-33258 staining based fluorescence microscopic analysis. The class given is functional, cell-based. Particulars: dose 30-120 nM.
The target of assay [4] is Epidermal growth factor receptor (Homo sapiens, UniProt P00533). As to the kind of experiment: Inhibition of recombinant human N-terminal GST-tagged EGFR (669 to 1210 residues) expressed in baculovirus expression system using Srctide as substrate incubated for 1 hr by mobility shift assay.
Assay [5] deals with ALK tyrosine kinase receptor (Homo sapiens), Q9UM73 [G1202R]. As to the kind of experiment: Potency index, ratio of IC50 of ceritinib to IC50 of compound for inhibition of recombinant human N-terminal GST-tagged ALK G1202R mutant (1058 to 1620 residues) expressed in baculovirus expression system using Srctide as substrate incubated for 1 hr by mobility shift assay.
For assay [6], the system named is NCI-H2228. As to the kind of experiment: Induction of apoptosis in human NCI-H2228 cells assessed as early apoptotic cells by observing morphological changes of cell at 120 nM incubated for 48 hrs by AO-EB staining based fluorescence microscopic analysis. The class given is functional.
The next assay deals with A549. As to the kind of experiment: Antiproliferative activity against human A549 cells assessed as reduction in cell growth incubated for 72 hrs by MTT assay. The class given is functional, cell-based. The following applies: A549, 72 h. On the technique in general: Tetrazolium dyes change colour on reduction, which living cells bring about.
For assay [7], the target named is ALK tyrosine kinase receptor (Homo sapiens, UniProt Q9UM73, L1196M). The assay is described as follows: Inhibition of recombinant human N-terminal GST-tagged ALK L1196M mutant (1058 to 1620 residues) expressed in baculovirus expression system using Srctide as substrate incubated for 1 hr by mobility shift assay.
Assay [8] relates to NCI-H2228. As to the kind of experiment: Antiproliferative activity against human NCI-H2228 cells assessed as reduction in cell growth incubated for 72 hrs by MTT assay. Particulars: NCI-H2228, 72 h. The assay is classed as functional, cell-based.
The target of assay [9] is T1, ALK tyrosine kinase receptor. The assay is described as follows: Inhibition of ALK in human NCI-H2228 cells assessed as reduction in ALK phosphorylation incubated for 24 hrs by Western blot analysis. The assay is classed as cell-based. (In general: Immunoblotting shows a protein as a band on a membrane.)
Target sequence in this assay (Q9UM73 19-1620 limits assumed): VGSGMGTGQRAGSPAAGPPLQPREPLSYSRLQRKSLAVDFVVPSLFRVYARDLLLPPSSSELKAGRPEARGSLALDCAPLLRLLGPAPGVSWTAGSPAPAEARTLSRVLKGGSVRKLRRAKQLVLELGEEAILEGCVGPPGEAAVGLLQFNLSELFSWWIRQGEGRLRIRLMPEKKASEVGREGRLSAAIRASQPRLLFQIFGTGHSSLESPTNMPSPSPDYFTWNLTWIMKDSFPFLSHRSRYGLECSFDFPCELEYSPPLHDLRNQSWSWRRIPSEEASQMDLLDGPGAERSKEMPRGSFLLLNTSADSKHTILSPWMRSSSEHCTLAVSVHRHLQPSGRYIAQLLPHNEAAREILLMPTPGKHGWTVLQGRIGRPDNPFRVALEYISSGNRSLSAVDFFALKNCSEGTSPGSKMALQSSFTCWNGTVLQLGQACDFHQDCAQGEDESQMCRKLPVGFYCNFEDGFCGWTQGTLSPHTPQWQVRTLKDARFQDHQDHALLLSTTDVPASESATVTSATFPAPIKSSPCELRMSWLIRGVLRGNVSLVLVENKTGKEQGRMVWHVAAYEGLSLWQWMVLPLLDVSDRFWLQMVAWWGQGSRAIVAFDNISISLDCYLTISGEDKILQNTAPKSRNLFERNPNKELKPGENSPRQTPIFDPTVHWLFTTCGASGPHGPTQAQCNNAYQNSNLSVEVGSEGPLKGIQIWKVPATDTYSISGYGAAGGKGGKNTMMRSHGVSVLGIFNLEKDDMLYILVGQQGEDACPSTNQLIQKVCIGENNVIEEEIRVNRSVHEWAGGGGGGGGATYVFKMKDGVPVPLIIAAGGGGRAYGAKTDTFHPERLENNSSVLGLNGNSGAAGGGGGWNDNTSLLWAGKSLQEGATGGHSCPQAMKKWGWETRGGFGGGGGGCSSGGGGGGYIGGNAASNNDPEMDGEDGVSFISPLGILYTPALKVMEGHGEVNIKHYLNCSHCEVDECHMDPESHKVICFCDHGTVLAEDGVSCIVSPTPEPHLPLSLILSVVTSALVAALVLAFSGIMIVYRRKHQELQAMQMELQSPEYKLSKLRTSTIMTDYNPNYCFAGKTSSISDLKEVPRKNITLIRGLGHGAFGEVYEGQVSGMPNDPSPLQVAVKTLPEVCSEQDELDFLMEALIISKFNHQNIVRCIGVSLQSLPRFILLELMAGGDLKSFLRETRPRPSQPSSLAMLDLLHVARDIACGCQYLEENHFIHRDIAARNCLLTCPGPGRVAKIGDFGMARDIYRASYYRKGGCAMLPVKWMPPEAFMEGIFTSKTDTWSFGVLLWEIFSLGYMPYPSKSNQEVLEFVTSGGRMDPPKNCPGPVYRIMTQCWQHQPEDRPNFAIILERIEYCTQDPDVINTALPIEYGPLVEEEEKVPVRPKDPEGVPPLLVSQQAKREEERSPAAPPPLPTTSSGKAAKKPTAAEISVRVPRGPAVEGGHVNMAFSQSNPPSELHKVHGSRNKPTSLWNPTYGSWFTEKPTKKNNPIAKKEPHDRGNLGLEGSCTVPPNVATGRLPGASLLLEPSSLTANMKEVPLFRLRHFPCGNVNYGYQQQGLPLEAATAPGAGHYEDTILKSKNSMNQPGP
In assay [10] the test system is NCI-H2228. The assay is described as follows: Effect on ALK expression in human NCI-H2228 cells at 25 to 100 nM incubated for 24 hrs by Western blot analysis. The class given is functional, cell-based. The following applies: dose 25-100 nM.
In assay [11] the target is T1, ALK tyrosine kinase receptor. As to the kind of experiment: Inhibition of ALK in human NCI-H2228 cells assessed as reduction in Erk phosphorylation at 25 to 100 nM incubated for 24 hrs by Western blot analysis. The class given is cell-based. Particulars: dose 25-100 nM.
Target sequence in this assay (Q9UM73 19-1620 limits assumed): as above
For assay [12] the target is unchanged. The assay is described as follows: Inhibition of ALK in human NCI-H2228 cells assessed as reduction in Akt phosphorylation at 25 to 100 nM incubated for 24 hrs by Western blot analysis. The class given is cell-based. Particulars: dose 25-100 nM.
Target sequence in this assay (Q9UM73 19-1620 limits assumed): as above
The next assay concerns MCF7. The assay is described as follows: Antiproliferative activity against human MCF7 cells assessed as reduction in cell growth incubated for 72 hrs by MTT assay. The assay is classed as functional, cell-based. The following applies: MCF7, 72 h.
Assay [13] has as its target T1, ALK tyrosine kinase receptor. The assay is described as follows: Inhibition of ALK in human NCI-H2228 cells assessed as reduction in ERK expression at 25 to 100 nM incubated for 24 hrs by Western blot analysis. The assay is classed as cell-based. The following applies: dose 25-100 nM.
Target sequence in this assay (Q9UM73 19-1620 limits assumed): as above
For assay [14], the target named is Proto-oncogene tyrosine-protein kinase ROS (Homo sapiens, UniProt P08922). As to the kind of experiment: Inhibition of recombinant human N-terminal GST-tagged ROS1 (1883 to 2347 residues) expressed in baculovirus expression system using IRS1 as substrate incubated for 1 hr by mobility shift assay.
In the next assay the test system is KARPAS-299. The assay is described as follows: Antiproliferative activity against human KARPAS-299 cells assessed as reduction in cell growth incubated for 72 hrs by MTT assay. The assay is classed as functional, cell-based. Particulars: KARPAS-299, 72 h.
Assay [15] deals with T1, ALK tyrosine kinase receptor. As to the kind of experiment: Inhibition of ALK in human NCI-H2228 cells assessed as reduction in Akt expression at 25 to 100 nM incubated for 24 hrs by Western blot analysis. The assay is classed as cell-based. Particulars: dose 25-100 nM.
Target sequence in this assay (Q9UM73 19-1620 limits assumed): as above
Assay [16] deals with ALK tyrosine kinase receptor (Homo sapiens), Q9UM73 [L1196M]. As to the kind of experiment: Potency index, ratio of IC50 of ceritinib to IC50 of compound for inhibition of recombinant human N-terminal GST-tagged ALK L1196M mutant (1058 to 1620 residues) expressed in baculovirus expression system using Srctide as substrate incubated for 1 hr by mobility shift assay.
In assay [17] the target is T1, ALK tyrosine kinase receptor. The assay is described as follows: Inhibition of ALK in human NCI-H2228 cells assessed as reduction in ALK phosphorylation at 100 nM incubated for 24 hrs by Western blot analysis relative to control. The class given is cell-based.
Target sequence in this assay (Q9UM73 19-1620 limits assumed): as above
The target of assay [18] is ALK tyrosine kinase receptor (Homo sapiens, UniProt Q9UM73, G1202R). The assay is described as follows: Inhibition of recombinant human N-terminal GST-tagged ALK G1202R mutant (1058 to 1620 residues) expressed in baculovirus expression system using Srctide as substrate incubated for 1 hr by mobility shift assay.

Calls of active or inactive are those of the source. The rule behind the calls is not given here.

Chain of Proto-oncogene tyrosine-protein kinase ROS (P08922 whole entry, the tested form may be a part): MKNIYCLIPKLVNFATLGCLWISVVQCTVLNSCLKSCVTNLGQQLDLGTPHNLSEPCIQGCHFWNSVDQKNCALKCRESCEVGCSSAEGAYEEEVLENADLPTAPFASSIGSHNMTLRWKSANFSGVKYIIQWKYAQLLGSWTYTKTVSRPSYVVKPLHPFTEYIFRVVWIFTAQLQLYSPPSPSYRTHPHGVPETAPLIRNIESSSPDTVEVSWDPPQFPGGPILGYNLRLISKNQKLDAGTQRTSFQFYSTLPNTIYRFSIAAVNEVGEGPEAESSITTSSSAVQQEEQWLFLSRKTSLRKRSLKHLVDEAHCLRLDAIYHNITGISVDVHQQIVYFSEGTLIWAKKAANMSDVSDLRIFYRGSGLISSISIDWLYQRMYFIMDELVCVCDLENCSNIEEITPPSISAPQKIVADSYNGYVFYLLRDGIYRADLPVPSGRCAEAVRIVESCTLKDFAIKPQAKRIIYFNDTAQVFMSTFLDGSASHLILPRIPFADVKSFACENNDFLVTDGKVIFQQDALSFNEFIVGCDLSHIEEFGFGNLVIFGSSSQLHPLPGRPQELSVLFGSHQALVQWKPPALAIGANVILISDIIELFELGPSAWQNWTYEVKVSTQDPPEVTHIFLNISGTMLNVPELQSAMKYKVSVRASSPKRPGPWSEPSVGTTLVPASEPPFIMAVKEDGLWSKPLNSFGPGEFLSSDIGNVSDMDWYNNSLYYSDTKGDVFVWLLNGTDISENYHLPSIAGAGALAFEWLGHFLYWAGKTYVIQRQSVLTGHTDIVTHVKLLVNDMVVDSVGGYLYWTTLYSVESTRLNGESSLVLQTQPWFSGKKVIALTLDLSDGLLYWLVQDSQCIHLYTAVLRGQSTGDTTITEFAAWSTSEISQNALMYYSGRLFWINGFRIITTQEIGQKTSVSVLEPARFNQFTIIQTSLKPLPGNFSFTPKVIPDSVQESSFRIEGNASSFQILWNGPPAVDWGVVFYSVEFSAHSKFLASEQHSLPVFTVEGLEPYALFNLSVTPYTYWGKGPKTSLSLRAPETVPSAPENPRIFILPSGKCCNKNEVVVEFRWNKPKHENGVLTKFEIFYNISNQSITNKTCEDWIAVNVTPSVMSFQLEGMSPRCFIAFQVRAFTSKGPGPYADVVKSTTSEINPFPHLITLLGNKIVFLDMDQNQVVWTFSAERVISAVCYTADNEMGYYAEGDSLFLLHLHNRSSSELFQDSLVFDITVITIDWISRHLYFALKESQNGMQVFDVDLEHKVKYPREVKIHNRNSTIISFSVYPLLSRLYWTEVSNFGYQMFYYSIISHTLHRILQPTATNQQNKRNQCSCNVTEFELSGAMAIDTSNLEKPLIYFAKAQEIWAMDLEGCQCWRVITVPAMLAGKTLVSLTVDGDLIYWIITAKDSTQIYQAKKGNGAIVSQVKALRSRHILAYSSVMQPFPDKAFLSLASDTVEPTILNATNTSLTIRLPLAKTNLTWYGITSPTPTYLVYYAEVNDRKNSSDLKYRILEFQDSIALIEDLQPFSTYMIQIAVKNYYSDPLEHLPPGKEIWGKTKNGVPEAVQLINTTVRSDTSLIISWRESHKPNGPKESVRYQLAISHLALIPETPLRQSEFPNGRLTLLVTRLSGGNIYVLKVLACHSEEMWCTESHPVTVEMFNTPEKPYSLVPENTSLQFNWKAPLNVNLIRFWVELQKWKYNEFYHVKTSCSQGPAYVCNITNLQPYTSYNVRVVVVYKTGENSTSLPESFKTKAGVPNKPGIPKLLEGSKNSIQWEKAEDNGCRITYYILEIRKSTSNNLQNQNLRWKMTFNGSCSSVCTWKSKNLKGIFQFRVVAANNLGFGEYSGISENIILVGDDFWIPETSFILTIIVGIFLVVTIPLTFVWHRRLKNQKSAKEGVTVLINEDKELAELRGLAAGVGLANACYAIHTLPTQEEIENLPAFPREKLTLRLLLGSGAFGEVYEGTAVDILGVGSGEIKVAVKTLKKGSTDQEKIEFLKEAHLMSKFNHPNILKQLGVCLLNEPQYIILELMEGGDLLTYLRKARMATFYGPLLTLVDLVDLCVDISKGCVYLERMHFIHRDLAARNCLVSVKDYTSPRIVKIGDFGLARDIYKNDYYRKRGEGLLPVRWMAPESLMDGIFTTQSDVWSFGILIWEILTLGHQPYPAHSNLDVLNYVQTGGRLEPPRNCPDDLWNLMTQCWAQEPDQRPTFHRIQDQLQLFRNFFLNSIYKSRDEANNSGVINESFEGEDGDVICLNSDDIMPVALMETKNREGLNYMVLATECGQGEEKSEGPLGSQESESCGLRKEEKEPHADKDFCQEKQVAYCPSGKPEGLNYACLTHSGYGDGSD
Chain of ALK tyrosine kinase receptor (Homo sapiens, UniProt Q9UM73, G1202R) (Q9UM73 19-1620 G1202R limits assumed): as the sequence (Q9UM73 19-1620 limits assumed) above, with G1184R counted along it

Usually IC50 stands for the midpoint of a concentration-inhibition curve. The term inhibition denotes how much of the control response was suppressed. For `COc1cc(SCc2ccc(CN(C)C)o2)ccc1Nc1ncc(Cl)c(Nc2ccccc2NS(C)(=O)=O)n1`, the result in the assay on NCI-H2228 [1], in the assay on NCI-H2228 [6] and in the assay with NCI-H2228 [10] was Active. Also, the concentration for half-maximal inhibition (IC50) is 2.8 nM in assay [2]; above 1000 nM in [4]; above 10000 nM with A549; 2.6 nM in [7]; 110 nM in the assay on NCI-H2228 [8]; above 10000 nM with MCF7. The IC50 in assay [14] was 2.3 nM; in the assay on KARPAS-299, 20 nM; in assay [18] it was 3.8 nM. The Activity entry with NCI-H2228 [3] was “Dose-dependent effect”. In addition, the Ratio IC50 in assay [5] and in assay [16] was 5 each time. Moreover, the inhibition result is “Dose-dependent effect” in [9] and 100% in [17]. Also, the inhibition entry in assay [11], in assay [12], in [13] and in assay [15] was “Active” in each case.
